Literature values, collected in US20050121026A1, “Method for administration of tiotropium” (priority 2003, published 2005).

Conditions: bronchodilator, background statement

SMILES: C[N+]1(C)[C@@H]2C[C@@H](OC(=O)C(O)(c3cccs3)c3cccs3)C[C@H]1[C@@H]1O[C@@H]12 [tiotropium bromide]
- Duration of action (may be active for up to): up to 24 hours
